In ChEMBL document CHEMBL4706545, “Antiproliferative effect of mitochondria-targeting allobetulin 1,2,3-triazolium salt derivatives and their mechanism of inducing apoptosis of cancer cells” (Eur J Med Chem, 2020):

What was measured:
ECa-109 cell line = experiment: Cytotoxicity against human ECa-109 cells assessed as reduction in cell viability incubated for 48 hrs by MTT assay; assay type: functional, cell-based; settings: ECa-109, 48 h
SGC-7901 = experiment: Cytotoxicity against human SGC-7901 cells assessed as reduction in cell viability incubated for 48 hrs by MTT assay; assay type: functional, cell-based; settings: SGC-7901, 48 h
[1] = Selectivity index, ratio of IC50 for cytotoxicity against human HL7702 cells to IC50 for cytotoxicity against human ECa-109 cells
L02 = experiment: Cytotoxicity against human HL7702 cells assessed as reduction in cell viability incubated for 48 hrs by MTT assay; assay type: ADME, cell-based; settings: L02, 48 h
[2] = Selectivity index, ratio of IC50 for cytotoxicity against human HL7702 cells to IC50 for cytotoxicity against human SGC-7901 cells
HeLa = experiment: Cytotoxicity against human HeLa cells assessed as reduction in cell viability incubated for 48 hrs by MTT assay; assay type: functional, cell-based
HepG2 = experiment: Cytotoxicity against human HepG2 cells assessed as reduction in cell viability incubated for 48 hrs by MTT assay; assay type: functional, cell-based; settings: HepG2, 48 h

SMILES | IC50 (ECa-109 cell line) | IC50 (SGC-7901) | Ratio IC50 [1] | IC50 (L02) | Ratio IC50 [2] | IC50 (HeLa) | IC50 (HepG2)
COc1cccc2c1C(=O)c1c(O)c3c(c(O)c1C2=O)C[C@@](O)(C(=O)CO)C[C@@H]3O[C@H]1C[C@H](N)[C@H](O)[C@H](C)O1 [DOXORUBICIN] | 2.06 µM | 1.53 µM | 0.46 | 0.94 µM | 0.61 | 1.07 µM | 
CC1(C)CC[C@]23CC[C@]4(C)[C@H](CC[C@@H]5[C@@]6(C)CC[C@H](O)C(C)(C)[C@@H]6CC[C@]54C)[C@H]2[C@H]1OC3 [ALLOBETULIN] | 47.6 µM | 62.4 µM |  | 42.7 µM |  | 45.6 µM | 55.9 µM
COc1ccc(CCn2nnc3c2C(C)(C)[C@@H]2CC[C@]4(C)[C@H](CC[C@@H]5[C@H]6[C@H]7OC[C@@]6(CCC7(C)C)CC[C@]54C)[C@@]2(C)C3)cc1 | 51.8 µM | 45.2 µM |  | 39.3 µM |  | 42.5 µM | 36.6 µM
COc1cccc(CCn2n[n+](C)c3c2C(C)(C)[C@@H]2CC[C@]4(C)[C@H](CC[C@@H]5[C@H]6[C@H]7OC[C@@]6(CCC7(C)C)CC[C@]54C)[C@@]2(C)C3)c1 | 2.06 µM | 2.37 µM |  | 2.21 µM |  | 2.87 µM | 2.72 µM
CC1(C)CC[C@]23CC[C@]4(C)[C@H](CC[C@@H]5[C@@]6(C)Cc7nnn(Cc8ccc(Cl)cc8)c7C(C)(C)[C@@H]6CC[C@]54C)[C@H]2[C@H]1OC3 | 64.2 µM | 61.4 µM |  | 44.9 µM |  | 51.3 µM | 66 µM
COC(Cn1n[n+](C)c2c1C(C)(C)[C@@H]1CC[C@]3(C)[C@H](CC[C@@H]4[C@H]5[C@H]6OC[C@@]5(CCC6(C)C)CC[C@]43C)[C@@]1(C)C2)OC | 5.53 µM | 6.67 µM |  | 4.1 µM |  | 5.39 µM | 6.33 µM
CCCCn1n[n+](C)c2c1C(C)(C)[C@@H]1CC[C@]3(C)[C@H](CC[C@@H]4[C@H]5[C@H]6OC[C@@]5(CCC6(C)C)CC[C@]43C)[C@@]1(C)C2 | 5.14 µM | 3.25 µM |  | 2.2 µM |  | 3.99 µM | 3.97 µM
CC1(C)CC[C@]23CC[C@]4(C)[C@H](CC[C@@H]5[C@@]6(C)Cc7nnn(Cc8ccc(F)cc8)c7C(C)(C)[C@@H]6CC[C@]54C)[C@H]2[C@H]1OC3 | 69 µM | > 80 µM |  | 42 µM |  | > 80 µM | 47.7 µM
CC1(C)CC[C@]23CC[C@]4(C)[C@H](CC[C@@H]5[C@@]6(C)Cc7nnn(Cc8ccc(Cl)c(Cl)c8)c7C(C)(C)[C@@H]6CC[C@]54C)[C@H]2[C@H]1OC3 | 43.6 µM | 44.5 µM |  | 35.5 µM |  | 32.6 µM | 53.9 µM
COc1cccc(Cn2n[n+](C)c3c2C(C)(C)[C@@H]2CC[C@]4(C)[C@H](CC[C@@H]5[C@H]6[C@H]7OC[C@@]6(CCC7(C)C)CC[C@]54C)[C@@]2(C)C3)c1 | 2.81 µM | 1.81 µM |  | 1.72 µM |  | 2.33 µM | 2.18 µM
CC1(C)CC[C@]23CC[C@]4(C)[C@H](CC[C@@H]5[C@@]6(C)Cc7nnn(Cc8ccc(F)cc8F)c7C(C)(C)[C@@H]6CC[C@]54C)[C@H]2[C@H]1OC3 | 10.9 µM | 9.02 µM |  | 7.47 µM |  | 10.2 µM | 6.56 µM
Cc1ccc(Cn2nnc3c2C(C)(C)[C@@H]2CC[C@]4(C)[C@H](CC[C@@H]5[C@H]6[C@H]7OC[C@@]6(CCC7(C)C)CC[C@]54C)[C@@]2(C)C3)cc1 | 34.8 µM | 20.3 µM |  | 22.7 µM |  | 32.3 µM | 26.6 µM
CC1(C)CC[C@]23CC[C@]4(C)[C@H](CC[C@@H]5[C@@]6(C)Cc7nnn(Cc8ccccn8)c7C(C)(C)[C@@H]6CC[C@]54C)[C@H]2[C@H]1OC3 | > 80 µM | > 80 µM |  | > 80 µM |  | > 80 µM | > 80 µM
CCCCCCn1nnc2c1C(C)(C)[C@@H]1CC[C@]3(C)[C@H](CC[C@@H]4[C@H]5[C@H]6OC[C@@]5(CCC6(C)C)CC[C@]43C)[C@@]1(C)C2 | 37.4 µM | 40.9 µM |  | 51.9 µM |  | > 80 µM | > 80 µM
C[n+]1nn(Cc2cccc(Cl)c2)c2c1C[C@]1(C)[C@H]3CC[C@@H]4[C@H]5[C@H]6OC[C@@]5(CCC6(C)C)CC[C@@]4(C)[C@]3(C)CC[C@H]1C2(C)C | 3.01 µM | 2.41 µM |  | 1.89 µM |  | 2.07 µM | 2.67 µM
COC(Cn1nnc2c1C(C)(C)[C@@H]1CC[C@]3(C)[C@H](CC[C@@H]4[C@H]5[C@H]6OC[C@@]5(CCC6(C)C)CC[C@]43C)[C@@]1(C)C2)OC | > 80 µM | > 80 µM |  | > 80 µM |  | > 80 µM | > 80 µM
CCCCCCCCn1n[n+](C)c2c1C(C)(C)[C@@H]1CC[C@]3(C)[C@H](CC[C@@H]4[C@H]5[C@H]6OC[C@@]5(CCC6(C)C)CC[C@]43C)[C@@]1(C)C2 | 3 µM | 2.18 µM |  | 1.34 µM |  | 2.55 µM | 2.01 µM
COc1cc(Cn2n[n+](C)c3c2C(C)(C)[C@@H]2CC[C@]4(C)[C@H](CC[C@@H]5[C@H]6[C@H]7OC[C@@]6(CCC7(C)C)CC[C@]54C)[C@@]2(C)C3)cc(OC)c1OC | 3.35 µM | 5.56 µM |  | 3.8 µM |  | 3.8 µM | 3.04 µM
